Laboratory results as given in ChEMBL document CHEMBL4610094, “Prenylated Phenolic Compounds from the Aerial Parts of Glycyrrhiza uralensis as PTP1B and α-Glucosidase Inhibitors” (J Nat Prod, 2020).
Active and inactive are the calls of the source. The calls are words filed in the database; no cut-off is given here.

How the values were obtained:
[1] = target: T1, Tyrosine-protein phosphatase non-receptor type 1 (Homo sapiens) (UniProt P18031); experiment: Inhibition of recombinant human PTP1B (1 to 321 residues) expressed in Escherichia coli at 10 uM using p-nitrophenyl phosphate as substrate incubated for 30 mins relative to control
T1 sequence (whole entry): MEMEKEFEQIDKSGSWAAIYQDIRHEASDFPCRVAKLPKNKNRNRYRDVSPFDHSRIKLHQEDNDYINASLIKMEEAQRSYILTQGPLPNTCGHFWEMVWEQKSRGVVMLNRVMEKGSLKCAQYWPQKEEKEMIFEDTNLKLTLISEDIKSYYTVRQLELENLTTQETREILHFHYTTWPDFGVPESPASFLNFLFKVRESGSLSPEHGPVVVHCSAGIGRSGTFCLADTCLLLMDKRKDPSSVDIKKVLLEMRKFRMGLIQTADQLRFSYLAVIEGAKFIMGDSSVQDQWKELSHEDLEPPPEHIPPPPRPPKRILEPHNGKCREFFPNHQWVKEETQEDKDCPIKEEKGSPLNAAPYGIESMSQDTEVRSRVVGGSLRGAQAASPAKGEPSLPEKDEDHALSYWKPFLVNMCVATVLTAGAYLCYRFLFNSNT

[2] = species on record: Homo sapiens; experiment: Inhibition of alpha-Glucosidase (unknown origin) at 10 uM using pNPG as substrate incubated for 30 mins relative to control
[3] = Cytotoxicity against human insulin resistant HepG2 cells assessed as cell viability at 10 uM by CCK8 assay relative to control; assay type: cell-based; conditions: read-out: Activity
[4] = system: HepG2; experiment: Induction of glucose uptake in human insulin resistant HepG2 cells at 10 uM incubated for 24 hrs by GOD-POD method relative to control; assay type: functional
[5] = target: T2, Tyrosine-protein phosphatase non-receptor type 1 (Homo sapiens, UniProt P18031); experiment: Inhibition of recombinant human PTP1B (1 to 321 residues) expressed in Escherichia coli using p-nitrophenyl phosphate as substrate incubated for 30 mins
T2 sequence (P18031 whole entry): T1 sequence (whole entry)

[6] = Inhibition of alpha-Glucosidase (unknown origin) using pNPG as substrate incubated for 30 mins; design: species or system Homo sapiens
[7] = system: HepG2; experiment: Induction of glucose uptake in human insulin resistant HepG2 cells at 500 uM incubated for 24 hrs by GOD-POD method relative to control; assay type: functional, cell-based

| inhibition [1] [%] | inhibition [2] [%] | IC50 [5] [µM] | IC50 [6] [µM] | Compound | viability at 10 µM [3] [%] | Activity [4] [%] | Activity [7] |
| --- | --- | --- | --- | --- | --- | --- | --- |
| > 60 | 61.2 | – | – | COc1c(CC=C(C)C)c(O)cc2oc(-c3ccc(O)cc3O)cc12 [LICOCOUMARONE] | 80 to 110 | >80 | – |
| – | – | 7.2 | – | COc1cc2c(c(OC)c1CC=C(C)C)C[C@H](c1ccc(O)c3c1OC(C)(C)C=C3)CO2 | – | – | – |
| > 60 | > 40 | – | 3.8 | COc1ccc(-c2coc3cc(O)cc(O)c3c2=O)cc1 [BIOCHANIN] | 80 to 110 | – | – |
| – | > 40 | – | – | CC(C)=CCc1cc([C@@H]2COc3cc(O)c(CC=C(C)C)c(O)c3C2=O)ccc1O | – | – | – |
| > 60 | > 40 | – | – | CC1(C)C=Cc2cc(/C=C/C(=O)c3ccc(O)cc3O)ccc2O1 | 80 to 110 | – | – |
| – | – | 7 | – | CC(C)=CCc1c(O)ccc(-c2coc3c(CC=C(C)C)c(O)cc(O)c3c2=O)c1O | – | – | – |
| > 60 | > 40 | – | – | COc1ccc([C@@H]2COc3cc(O)c(CC=C(C)C)cc3C2)c(O)c1 | 80 to 110 | – | – |
| – | – | 5.9 | – | COc1c(CC=C(C)C)c(O)cc2c1C[C@H](c1ccc(O)c(CC=C(C)C)c1O)CO2 [LICORICIDIN] | – | – | – |
| – | – | – | – | CN(C)C(=N)NC(=N)N | – | – | Active |
| > 60 | > 40 | 5.9 | 20.1 | CC(C)=CCc1c(O)cc2c(c1O)C(=O)[C@@](O)(c1ccc(O)c3c1OC(C)(C)C=C3)CO2 | 80 to 110 | – | – |
| > 60 | > 40 | – | – | CC(C)=CCc1c(O)cc2oc(-c3ccc(O)cc3)c(O)c(=O)c2c1O [LICOFLAVONOL] | 80 to 110 | – | – |
| > 60 | > 40 | 6.7 | – | C=C(C)[C@@H](O)Cc1c(O)ccc([C@@H]2COc3cc(OC)c(CC=C(C)C)c(OC)c3C2)c1O | 80 to 110 | – | – |
| – | – | 2.3 | 16.3 | CC(C)=CCc1c(O)c(CC=C(C)C)c2occ(-c3ccc(O)cc3)c(=O)c2c1O | – | – | – |
| > 60 | > 40 | – | – | COc1ccc(C2COc3c(CC=C(C)C)c(O)cc(O)c3C2=O)c(O)c1 (stereo not given) | 80 to 110 | – | – |
| – | – | 4.5 | – | COc1c(-c2ccc(O)cc2)oc2cc(O)c(CC=C(C)C)c(O)c2c1=O | – | – | – |
| > 60 | > 40 | 5.3 | – | COc1cc(O)ccc1-c1cc2c(OC)c(CC=C(C)C)c(O)cc2o1 | 80 to 110 | – | – |
| > 60 | > 40 | – | – | COc1cc(O)c2c(=O)c(OC)c(-c3ccc(O)cc3)oc2c1 [KUMATAKENIN] | 80 to 110 | – | – |
| > 60 | > 40 | – | – | COc1cc2oc(=O)c3c4ccc(O)cc4oc3c2c(OC)c1CC=C(C)C | 80 to 110 | – | – |
| > 60 | > 40 | 4.8 | – | COc1c(CC=C(C)C)c(O)cc2c1[C@@H]1Oc3cc4c(cc3[C@@H]1CO2)C=CC(C)(C)O4 | 80 to 110 | – | – |
| > 60 | > 40 | – | – | CC1(C)C=Cc2cc(-c3coc4cc(O)cc(O)c4c3=O)ccc2O1 | 80 to 110 | – | – |
| > 60 | > 40 | – | – | COc1ccc([C@@H]2COc3cc(O)ccc3C2)c(O)c1 | 80 to 110 | – | – |
| > 60 | > 40 | – | – | CC(C)=CCc1c(O)ccc(C2COc3cc(O)c(CC=C(C)C)c(O)c3C2=O)c1O (stereo not given) | 80 to 110 | – | – |
| > 60 | > 40 | – | – | COc1cc2c(c(O)c1CC=C(C)C)C(=O)C(c1ccc(O)cc1O)CO2 (stereo not given) | 80 to 110 | >80 | – |
| > 60 | > 40 | – | – | O=c1c(O)c(-c2ccc(O)cc2)oc2cc(O)cc(O)c12 [KAEMPFEROL] | 80 to 110 | >80 | – |
| > 60 | > 40 | 4.3 | – | COc1cc2c(c(O)c1CC=C(C)C)C(=O)C(c1ccc(O)c(CC=C(C)C)c1O)CO2 (stereo not given) | 80 to 110 | – | – |

| inhibition [1] [%] | inhibition [2] [%] | IC50 [5] [µM] | IC50 [6] [µM] | Compound | viability at 10 µM [3] [%] | Activity [4] [%] | Activity [7] |
| --- | --- | --- | --- | --- | --- | --- | --- |
| > 60 | 58.4 | – | – | O=c1c(-c2ccc(O)cc2)coc2cc(O)cc(O)c12 [GENISTEIN] | 80 to 110 | – | – |
| > 60 | > 40 | – | – | COc1cc(O)ccc1/C=C/C(=O)c1ccc(O)cc1 [ECHINATIN] | 80 to 110 | – | – |
| > 60 | > 40 | 7.5 | – | CC(C)=CCc1c(O)ccc(-c2coc3cc(O)c(CC=C(C)C)c(O)c3c2=O)c1O | 80 to 110 | – | – |
| – | – | 7.7 | – | CC(C)=CCc1cc(-c2coc3cc(O)c(CC=C(C)C)c(O)c3c2=O)cc(O)c1O | – | – | – |
| > 60 | > 40 | – | 5.6 | O=C(/C=C/c1ccc(O)cc1)c1ccc(O)cc1O [ISOLIQUIRITIGENIN] | 80 to 110 | – | – |
| – | – | – | 3.8 | Oc1ccc2c(c1)OC[C@@H](c1cc3c(cc1O)OCO3)C2 | – | – | – |
| > 60 | > 40 | – | – | COc1cc2c(c(O)c1CC=C(C)C)C(=O)[C@H](c1ccc(O)cc1)CO2 | 80 to 110 | 95 | – |
| > 60 | > 40 | – | – | COc1cc2c(c(OC)c1CC=C(C)C)C[C@H](c1ccc(O)cc1O)CO2 [GLYASPERIN D] | 80 to 110 | – | – |
| > 60 | 20.1 | – | – | CC(C)=CCc1c(O)ccc(-c2coc3cc(O)cc(O)c3c2=O)c1O | 80 to 110 | – | – |
| > 60 | > 40 | – | – | CC1(C)C=Cc2c(ccc([C@@H]3COc4cc(O)cc(O)c4C3=O)c2O)O1 | 80 to 110 | – | – |
| > 60 | > 40 | – | – | CC(C)=CCc1cc([C@@H]2CC(=O)c3c(O)cc(O)cc3O2)ccc1O | 80 to 110 | – | – |
| > 60 | > 40 | – | 0.1 | COc1c(CC=C(C)C)c(O)cc2oc(=O)c(-c3ccc(O)cc3O)cc12 [GLYCYCOUMARIN] | 80 to 110 | – | – |
| > 60 | > 40 | 2.1 | – | CC(C)=CCc1cc([C@@H]2CC(=O)c3c(O)cc(O)c(CC=C(C)C)c3O2)ccc1O [LESPEDEZAFLAVANONE B] | 80 to 110 | – | – |
| > 60 | > 40 | – | – | CC1(C)C=Cc2cc(-c3coc4cc(O)cc(O)c4c3=O)cc(O)c2O1 | 80 to 110 | – | – |
| – | – | – | 3.2 | CC(C)=CCc1cc(-c2oc3cc(O)c(CC=C(C)C)c(O)c3c(=O)c2O)ccc1O | – | – | – |
| – | – | – | 166 | C[C@H]1O[C@H](O[C@H]2[C@H](O)[C@@H](O)[C@@H](O[C@H]3[C@H](O)[C@@H](O)C(O)O[C@@H]3CO)O[C@@H]2CO)[C@H](O)[C@@H](O)[C@@H]1N[C@H]1C=C(CO)[C@@H](O)[C@H](O)[C@H]1O (stereo not given in full) [ACARBOSE] | – | – | – |
| > 60 | > 40 | 3.3 | – | COc1cc2oc(-c3ccc(O)cc3O)cc2c(OC)c1CC=C(C)C | 80 to 110 | – | – |
| – | – | 4.4 | – | COc1c(CC=C(C)C)c(O)cc2c1[C@@H]1Oc3cc(O)c(CC=C(C)C)cc3[C@@H]1CO2 | – | – | – |
| – | 34.2 | – | – | CC(C)=CCc1cc(-c2coc3cc(O)cc(O)c3c2=O)ccc1O | – | – | – |
| > 60 | > 40 | 8.3 | 0.3 | COc1c(CC=C(C)C)c(O)cc2c1-c1oc3cc(O)ccc3c1CO2 | 80 to 110 | >80 | – |
| > 60 | > 40 | – | – | CC(C)=CCc1c(O)ccc([C@@]2(O)COc3cc(O)c(CC=C(C)C)c(O)c3C2=O)c1O | 80 to 110 | – | – |
| > 60 | > 40 | – | – | O=c1c(-c2ccc(O)cc2)coc2cc(O)ccc12 [DAIDZEIN] | 80 to 110 | >80 | – |
| – | – | 5.3 | – | COc1cc2occ(-c3ccc(O)cc3O)c(=O)c2c(O)c1CC=C(C)C | – | – | – |
| > 60 | 61.7 | 9.2 | 8.6 | CC(C)=CCc1c(O)ccc(-c2cc3ccc(O)cc3o2)c1O [2'-O-DEMETHYLBIDWILLOL B] | 80 to 110 | – | – |
| > 60 | > 40 | – | – | COc1cc2c(c(OC)c1CC=C(C)C)C[C@H](c1ccc(O)c(CC=C(C)C)c1O)CO2 | 80 to 110 | – | – |
